According to patent US8603945B2, “Methods and compositions for providing salicyclic acid-independent pathogen resistance in plants” (The Regents of the University of California, priority 2008, dated 2013):
“Also recorded” adds a separate entry of the source.

Test system: cluster of 131 Arabidopsis genes (Table 1)
Assay: Affymetrix ATH1 whole genome microarray of induced transcriptional responses
Format: in vivo
Settings: 48 h post treatment
Description: This transient activity of DCA functionally discriminates it from INA and allows us to precisely correlate molecular event, such as transcriptional changes, with disease resistance. Therefore we performed a set of microarray experiments with Affymetrix ATH1 Arabidopsis whole genome chips profiling DCA- and INA-induced transcriptional responses at 48 h and 6 d post treatment. […] The reference accession numbers and information can be used by one of skill in the art to obtain the sequences and additional information from public databases available at the time of filing.

| SMILES | up-regulation of cluster of 131 genes at 48 h post treatment |
| --- | --- |
| O=C(O)c1cc(Cl)nc(Cl)c1 [INA, 2,6-dichloroisonicotinic acid, reference compound] | significantly up-regulated |

Same assay, conditions: 6 d post treatment

| SMILES | up-regulation of cluster of 131 genes at 6 d post treatment |
| --- | --- |
| O=C(O)c1cc(Cl)nc(Cl)c1 [INA, 2,6-dichloroisonicotinic acid, reference compound] | significantly up-regulated |

Test system: HpNoco2 (virulent Peronospora)
Assay: HpNoco2 disease resistance assay on soil grown seedlings (spore / sporangiophore counts 7 dpi)
Format: in vivo, Arabidopsis
Settings: 100 uM, time-course, FIG. 9
Description: (A) RT-PCR analysis of CaBP22 and WRKY70 expression in Col-0 (wild type) and mutant backgrounds 24 hours after spraying 2 week old seedlings with water (un), 1 mM SA, or 100 μM DCA. ACT8 is shown as loading control. […] (B) Two week old seedlings were sprayed with virulent HpNoco2 24 hours after pre-treatment with 100 uM DCA. Spores were counted 7 days after spray infection. Means and standard errors were calculated from three independent experiments. Mann-Whitney U test (p<0.05) was used to determine significant differences among mutants.
A: Extent of disease susceptibility/resistance determined by counting the numbers of Peronospora sproangiophores of 17 day old seedlings 7 d after spray-inoculation with 5E4 HpNoco2 spores/ml. 24 h prior to infection with Noco2 the aerial parts of the soil grown seedlings were sprayed with the indicated concentrations of DCA (compound 67) or SA. Three replicates each with at least 30 seedlings per treatment gave similar results. […] Concentrations higher than 100 μM caused cell death, as indicated by reduced GUS staining.
(A) Chemical structures of DCA analogs analyzed. (B) Fluorometric analysis of GUS activities induced by DCA analogs. Proteins were extracted from 2 week old soil grown Col-0 seedlings 48 hours after spray-treatment with compounds at the indicated concentrations (uM). Means and standard errors calculated from 3 independent replicates. (c) HpNoco2 growth inhibition assay. 2 week old soil grown Col-0 seedlings were spray-infected with HpNoco2 48 hours after treatment with varying concentrations (uM) of each DCA analog. Seedlings were assayed 7 dpi for Peronospora growth (spore counts). 100% inhibition=0 spores. Assay was repeated three times with similar results.
DCA induces disease resistance. Time-course experiment with 2-week old Col-0 seedlings that were sprayed with 100 uM of the respective compounds at the indicated times prior to HpNoco2 (3×10^4 spores/ml) spray-infection. Spores were counted 7 dpi.

| SMILES | duration of defense-inducing activity |
| --- | --- |
| O=C(O)c1cc(Cl)nc(Cl)c1 [INA, 2,6-dichloroisonicotinic acid, reference compound] | lasts much longer leading to strong disease resistance for the entire duration of the experiment |

Same assay, conditions: infection 48 hours after treatment, structure-activity analysis

| SMILES | efficiency in inducing resistance to HpNoco2 (defense inducing activity) |
| --- | --- |
| O=C(O)c1cc(Cl)cc(Cl)c1 [3,5-Dichlorobenzoic acid, reference compound] | DCA is more active than 3,5-Dichlorobenzoic acid |
| Nc1c(Cl)cccc1C(=O)O [3-Chloroanthranilic acid] | reduced defense inducing activities |
| O=C(O)c1cccc(Cl)c1 [3-Chlorobenzoic acid, reference compound] | 3-Chloroanthranilic acid is more active than 3-Chlorobenzoic acid |
| Nc1ccc(Cl)cc1C(=O)O [5-Chloroanthranilic acid] | reduced defense inducing activities |
| Nc1cccc(Cl)c1C(=O)O [6-Chloroanthranilic acid, reference compound] | completely inactive |
| O=C(O)c1cc(Cl)nc(Cl)c1 [INA, 2,6-dichloroisonicotinic acid, reference compound] | nearly identical; also recorded: equally efficient |
| O=C(O)c1ccccc1O [SA, salicylic acid] | less efficiently than DCA or INA |
| Nc1ccccc1C(=O)O [anthranilic acid, reference compound] | nearly completely inactive |
| O=C(O)c1ccccc1 [benzoic acid, reference compound] | nearly completely inactive |

Test system: −333_CaBP22::GUS
Assay: GUS activity after spray-treatment of soil grown seedlings (structure-activity analysis, FIG. 5B, FIG. 8B)
Format: in vivo, Arabidopsis
Settings: 48 hours after spray-treatment, structure-activity analysis
Description: (A) Chemical structures of DCA analogs analyzed. […] Proteins were extracted from 2 week old soil grown Col-0 seedlings 48 hours after spray-treatment with compounds at the indicated concentrations (uM). Means and standard errors calculated from 3 independent replicates. (c) HpNoco2 growth inhibition assay. 2 week old soil grown Col-0 seedlings were spray-infected with HpNoco2 48 hours after treatment with varying concentrations (uM) of each DCA analog. Seedlings were assayed 7 dpi for Peronospora growth (spore counts). 100% inhibition=0 spores.
DCA and the known SA-analog INA are structurally related. To compare their activities and to gain further understanding on structural features required for their defense inducing activities, a structure function analysis (SAR) was performed using multiple derivatives of DCA and INA (FIG. 8A).

| SMILES | efficiency in inducing −333_CaBP22::GUS expression (defense inducing activity) |
| --- | --- |
| O=C(O)c1cc(Cl)cc(Cl)c1 [3,5-Dichlorobenzoic acid, reference compound] | DCA is more active than 3,5-Dichlorobenzoic acid |
| Nc1c(Cl)cccc1C(=O)O [3-Chloroanthranilic acid] | reduced defense inducing activities |
| O=C(O)c1cccc(Cl)c1 [3-Chlorobenzoic acid, reference compound] | 3-Chloroanthranilic acid is more active than 3-Chlorobenzoic acid |
| Nc1ccc(Cl)cc1C(=O)O [5-Chloroanthranilic acid] | reduced defense inducing activities |
| Nc1cccc(Cl)c1C(=O)O [6-Chloroanthranilic acid, reference compound] | completely inactive |
| O=C(O)c1cc(Cl)nc(Cl)c1 [INA, 2,6-dichloroisonicotinic acid, reference compound] | nearly identical |
| O=C(O)c1ccccc1O [SA, salicylic acid] | less efficiently than DCA or INA |
| Nc1ccccc1C(=O)O [anthranilic acid, reference compound] | nearly completely inactive |
| O=C(O)c1ccccc1 [benzoic acid, reference compound] | nearly completely inactive |

Test system: PR1
Assay: not given
Settings: Wendehenne et al., 1998; Pillonel, 2001; read-out: published EC50 value for PR1 induction; cited from earlier work

| SMILES | EC50 |
| --- | --- |
| O=C(O)c1cc(Cl)nc(Cl)c1 [INA, 2,6-dichloroisonicotinic acid, reference compound] | 10 µM |
| O=C(O)c1ccccc1O [SA, salicylic acid] | 65 µM |
